According to ChEMBL document CHEMBL4507281, “Data for DCP probe BI-4394” (2021):

Columns and labels:
[1] = system: Tyrosine-protein kinase ABL1 (Homo sapiens), P00519 [Q252H]; details: Compound concentration 100.0 nM
[2] = system: Tyrosine-protein kinase ABL1 (Homo sapiens), P00519 [Q252H]; details: Compound concentration 100.0 nM; remark: listed apart in the source
[3] = molecular target: Atypical kinase COQ8B, mitochondrial (Homo sapiens) (UniProt Q96D53); details: Compound concentration 100.0 nM
[4] = molecular target: Peripheral plasma membrane protein CASK (Homo sapiens) (UniProt O14936); details: Compound concentration 100.0 nM
[5] = molecular target: Cyclin-dependent kinase-like 5 (Homo sapiens) (UniProt O76039); details: Compound concentration 100.0 nM
[6] = molecular target: T1, Serine/threonine-protein kinase Chk1 (Homo sapiens) (UniProt O14757); details: Compound concentration 100.0 nM
T1 sequence (whole entry): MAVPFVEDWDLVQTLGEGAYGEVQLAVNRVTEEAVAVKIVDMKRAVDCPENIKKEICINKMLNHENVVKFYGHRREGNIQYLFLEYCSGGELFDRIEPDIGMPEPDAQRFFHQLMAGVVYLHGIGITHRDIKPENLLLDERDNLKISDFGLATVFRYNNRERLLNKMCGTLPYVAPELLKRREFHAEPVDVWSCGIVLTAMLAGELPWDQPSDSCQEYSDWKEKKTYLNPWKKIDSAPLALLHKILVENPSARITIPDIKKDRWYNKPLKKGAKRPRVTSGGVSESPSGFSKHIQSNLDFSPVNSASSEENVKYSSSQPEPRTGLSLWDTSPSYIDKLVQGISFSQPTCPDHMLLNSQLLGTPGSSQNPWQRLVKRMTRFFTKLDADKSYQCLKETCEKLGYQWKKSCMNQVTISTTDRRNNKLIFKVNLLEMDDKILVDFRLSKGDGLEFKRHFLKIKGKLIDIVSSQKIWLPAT

[7] = molecular target: Casein kinase I isoform delta (Homo sapiens) (UniProt P48730); details: Compound concentration 100.0 nM
[8] = molecular target: Serine/threonine-protein kinase DCLK1 (Homo sapiens) (UniProt O15075); details: Compound concentration 100.0 nM
[9] = molecular target: Serine/threonine-protein kinase 17A (Homo sapiens) (UniProt Q9UEE5); details: Compound concentration 100.0 nM
[10] = molecular target: Epidermal growth factor receptor (Homo sapiens) (UniProt P00533); details: Compound concentration 100.0 nM
[11] = system: Epidermal growth factor receptor (Homo sapiens), P00533 [L861Q]; details: Compound concentration 100.0 nM
[12] = molecular target: Ephrin type-A receptor 2 (Homo sapiens) (UniProt P29317); details: Compound concentration 100.0 nM
[13] = molecular target: Ephrin type-A receptor 4 (Homo sapiens) (UniProt P54764); details: Compound concentration 100.0 nM
[14] = molecular target: Fibroblast growth factor receptor 1 (Homo sapiens) (UniProt P11362); details: Compound concentration 100.0 nM
[15] = system: Receptor-type tyrosine-protein kinase FLT3 (Homo sapiens), P36888 [D835H]; details: Compound concentration 100.0 nM
[16] = system: Receptor-type tyrosine-protein kinase FLT3 (Homo sapiens), P36888 [D835V]; details: Compound concentration 100.0 nM
[17] = molecular target: G protein-coupled receptor kinase 4 (Homo sapiens) (UniProt P32298); details: Compound concentration 100.0 nM
[18] = molecular target: Tyrosine-protein kinase HCK (Homo sapiens) (UniProt P08631); details: Compound concentration 100.0 nM
[19] = molecular target: Homeodomain-interacting protein kinase 2 (Homo sapiens) (UniProt Q9H2X6); details: Compound concentration 100.0 nM
[20] = system: Mast/stem cell growth factor receptor Kit (Homo sapiens), P10721 [A829P]; details: Compound concentration 100.0 nM
[21] = molecular target: Mitogen-activated protein kinase kinase kinase kinase 3 (Homo sapiens) (UniProt Q8IVH8); details: Compound concentration 100.0 nM
[22] = molecular target: Mitogen-activated protein kinase kinase kinase 11 (Homo sapiens) (UniProt Q16584); details: Compound concentration 100.0 nM
[23] = molecular target: Myosin light chain kinase 2, skeletal/cardiac muscle (Homo sapiens) (UniProt Q9H1R3); details: Compound concentration 100.0 nM
[24] = molecular target: Myosin light chain kinase family member 4 (Homo sapiens) (UniProt Q86YV6); details: Compound concentration 100.0 nM
[25] = molecular target: Serine/threonine-protein kinase PAK 5 (Homo sapiens) (UniProt Q9P286); details: Compound concentration 100.0 nM
[26] = molecular target: Calcium-dependent protein kinase 1 (Plasmodium falciparum) (UniProt P62344); details: Compound concentration 100.0 nM
[27] = molecular target: Serine/threonine-protein kinase pim-1 (Homo sapiens) (UniProt P11309); details: Compound concentration 100.0 nM
[28] = molecular target: Phosphatidylinositol 5-phosphate 4-kinase type-2 beta (Homo sapiens) (UniProt P78356); details: Compound concentration 100.0 nM
[29] = molecular target: Serine/threonine-protein kinase RIO2 (Homo sapiens) (UniProt Q9BVS4); details: Compound concentration 100.0 nM
[30] = molecular target: Dual serine/threonine and tyrosine protein kinase (Homo sapiens) (UniProt Q6XUX3); details: Compound concentration 100.0 nM
[31] = molecular target: Ribosomal protein S6 kinase alpha-1 (Homo sapiens) (UniProt Q15418); details: Compound concentration 100.0 nM
[32] = molecular target: Ribosomal protein S6 kinase alpha-3 (Homo sapiens) (UniProt P51812); details: Compound concentration 100.0 nM
[33] = molecular target: NUAK family SNF1-like kinase 2 (Homo sapiens) (UniProt Q9H093); details: Compound concentration 100.0 nM
[34] = molecular target: Serine/threonine-protein kinase 35 (Homo sapiens) (UniProt Q8TDR2); details: Compound concentration 100.0 nM
[35] = molecular target: TGF-beta receptor type-1 (Homo sapiens) (UniProt P36897); details: Compound concentration 100.0 nM
[36] = molecular target: Angiopoietin-1 receptor (Homo sapiens) (UniProt Q02763); details: Compound concentration 100.0 nM
[37] = molecular target: Non-receptor tyrosine-protein kinase TNK1 (Homo sapiens) (UniProt Q13470); details: Compound concentration 100.0 nM
[38] = molecular target: 5-hydroxytryptamine receptor 3A (Homo sapiens) (UniProt P46098); details: Compound concentration 10.0 uM
[39] = molecular target: 5-hydroxytryptamine receptor 7 (Homo sapiens) (UniProt P34969); details: Compound concentration 10.0 uM

NUAK family SNF1-like kinase 2 (Homo sapiens), sequence (Q9H093 whole entry): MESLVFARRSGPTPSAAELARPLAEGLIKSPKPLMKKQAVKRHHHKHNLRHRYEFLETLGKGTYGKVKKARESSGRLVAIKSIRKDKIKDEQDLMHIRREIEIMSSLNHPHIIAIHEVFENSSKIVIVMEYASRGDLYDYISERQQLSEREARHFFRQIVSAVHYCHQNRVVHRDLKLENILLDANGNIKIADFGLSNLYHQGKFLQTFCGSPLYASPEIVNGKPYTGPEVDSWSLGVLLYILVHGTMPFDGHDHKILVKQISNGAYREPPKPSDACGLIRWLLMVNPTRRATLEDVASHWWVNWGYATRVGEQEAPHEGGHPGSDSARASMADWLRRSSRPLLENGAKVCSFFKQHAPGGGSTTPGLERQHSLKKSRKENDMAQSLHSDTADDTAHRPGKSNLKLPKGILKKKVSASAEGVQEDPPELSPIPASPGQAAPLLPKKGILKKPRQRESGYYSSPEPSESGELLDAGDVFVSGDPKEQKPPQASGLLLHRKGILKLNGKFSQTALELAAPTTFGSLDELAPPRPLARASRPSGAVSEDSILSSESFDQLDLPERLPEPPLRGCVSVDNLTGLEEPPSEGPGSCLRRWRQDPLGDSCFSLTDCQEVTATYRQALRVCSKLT
Ribosomal protein S6 kinase alpha-3 (Homo sapiens), sequence (P51812 whole entry): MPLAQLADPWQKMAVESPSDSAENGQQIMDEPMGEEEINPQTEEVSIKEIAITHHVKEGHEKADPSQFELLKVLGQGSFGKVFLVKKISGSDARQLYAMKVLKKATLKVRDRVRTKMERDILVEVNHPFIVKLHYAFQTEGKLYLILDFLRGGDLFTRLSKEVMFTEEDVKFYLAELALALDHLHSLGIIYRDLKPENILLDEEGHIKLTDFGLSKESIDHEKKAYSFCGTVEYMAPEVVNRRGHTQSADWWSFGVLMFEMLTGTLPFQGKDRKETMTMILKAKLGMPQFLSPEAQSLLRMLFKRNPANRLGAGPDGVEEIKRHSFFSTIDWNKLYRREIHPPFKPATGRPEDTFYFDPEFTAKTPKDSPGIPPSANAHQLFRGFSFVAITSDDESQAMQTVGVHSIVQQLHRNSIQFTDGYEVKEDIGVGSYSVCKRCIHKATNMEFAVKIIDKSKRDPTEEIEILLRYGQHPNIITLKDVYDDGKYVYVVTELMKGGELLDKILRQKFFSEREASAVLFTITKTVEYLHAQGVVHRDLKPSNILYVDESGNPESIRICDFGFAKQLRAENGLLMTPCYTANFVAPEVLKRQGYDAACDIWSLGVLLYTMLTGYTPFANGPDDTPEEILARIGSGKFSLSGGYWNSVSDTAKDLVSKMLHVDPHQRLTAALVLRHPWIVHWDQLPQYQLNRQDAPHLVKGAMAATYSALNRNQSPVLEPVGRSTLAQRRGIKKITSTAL
Angiopoietin-1 receptor (Homo sapiens), sequence (Q02763 whole entry): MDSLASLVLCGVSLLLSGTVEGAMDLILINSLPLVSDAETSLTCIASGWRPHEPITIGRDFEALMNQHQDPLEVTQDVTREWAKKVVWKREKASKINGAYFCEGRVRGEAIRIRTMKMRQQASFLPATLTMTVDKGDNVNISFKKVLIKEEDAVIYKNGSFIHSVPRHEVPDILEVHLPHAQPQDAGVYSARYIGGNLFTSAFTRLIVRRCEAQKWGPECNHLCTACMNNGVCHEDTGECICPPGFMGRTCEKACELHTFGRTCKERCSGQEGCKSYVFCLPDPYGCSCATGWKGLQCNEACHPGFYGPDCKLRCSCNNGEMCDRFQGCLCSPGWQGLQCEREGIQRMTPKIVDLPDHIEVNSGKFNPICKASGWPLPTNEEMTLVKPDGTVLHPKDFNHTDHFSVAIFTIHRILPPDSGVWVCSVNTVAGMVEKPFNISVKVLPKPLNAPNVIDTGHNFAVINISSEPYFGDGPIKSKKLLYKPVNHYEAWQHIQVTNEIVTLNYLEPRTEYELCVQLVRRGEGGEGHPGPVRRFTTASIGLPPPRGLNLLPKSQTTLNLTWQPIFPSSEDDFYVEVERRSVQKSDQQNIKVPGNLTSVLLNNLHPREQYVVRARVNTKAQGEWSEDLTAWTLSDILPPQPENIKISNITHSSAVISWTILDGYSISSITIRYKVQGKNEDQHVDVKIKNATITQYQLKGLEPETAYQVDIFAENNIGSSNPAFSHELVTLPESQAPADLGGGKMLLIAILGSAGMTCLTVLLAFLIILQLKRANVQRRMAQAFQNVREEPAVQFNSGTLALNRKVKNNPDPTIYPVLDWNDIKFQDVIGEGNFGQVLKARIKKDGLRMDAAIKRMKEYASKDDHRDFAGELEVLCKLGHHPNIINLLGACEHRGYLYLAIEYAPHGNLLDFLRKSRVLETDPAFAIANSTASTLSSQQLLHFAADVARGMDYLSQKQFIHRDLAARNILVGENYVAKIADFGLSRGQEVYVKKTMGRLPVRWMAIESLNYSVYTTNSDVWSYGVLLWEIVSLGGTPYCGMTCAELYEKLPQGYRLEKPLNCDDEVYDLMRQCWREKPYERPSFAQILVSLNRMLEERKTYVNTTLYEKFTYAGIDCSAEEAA
TGF-beta receptor type-1 (Homo sapiens), sequence (P36897 whole entry): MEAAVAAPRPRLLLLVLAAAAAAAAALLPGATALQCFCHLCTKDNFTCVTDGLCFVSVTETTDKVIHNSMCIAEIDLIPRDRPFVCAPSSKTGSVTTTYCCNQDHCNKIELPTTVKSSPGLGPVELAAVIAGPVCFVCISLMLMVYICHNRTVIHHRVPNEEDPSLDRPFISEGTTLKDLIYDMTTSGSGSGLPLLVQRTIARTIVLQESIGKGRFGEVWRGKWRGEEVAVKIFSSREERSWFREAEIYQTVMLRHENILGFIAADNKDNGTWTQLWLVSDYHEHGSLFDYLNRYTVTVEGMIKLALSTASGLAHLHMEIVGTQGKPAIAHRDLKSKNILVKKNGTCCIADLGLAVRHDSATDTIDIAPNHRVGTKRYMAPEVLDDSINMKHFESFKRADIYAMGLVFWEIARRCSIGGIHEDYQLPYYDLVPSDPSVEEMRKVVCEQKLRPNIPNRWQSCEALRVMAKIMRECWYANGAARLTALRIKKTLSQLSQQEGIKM
Ephrin type-A receptor 4 (Homo sapiens), sequence (P54764 whole entry): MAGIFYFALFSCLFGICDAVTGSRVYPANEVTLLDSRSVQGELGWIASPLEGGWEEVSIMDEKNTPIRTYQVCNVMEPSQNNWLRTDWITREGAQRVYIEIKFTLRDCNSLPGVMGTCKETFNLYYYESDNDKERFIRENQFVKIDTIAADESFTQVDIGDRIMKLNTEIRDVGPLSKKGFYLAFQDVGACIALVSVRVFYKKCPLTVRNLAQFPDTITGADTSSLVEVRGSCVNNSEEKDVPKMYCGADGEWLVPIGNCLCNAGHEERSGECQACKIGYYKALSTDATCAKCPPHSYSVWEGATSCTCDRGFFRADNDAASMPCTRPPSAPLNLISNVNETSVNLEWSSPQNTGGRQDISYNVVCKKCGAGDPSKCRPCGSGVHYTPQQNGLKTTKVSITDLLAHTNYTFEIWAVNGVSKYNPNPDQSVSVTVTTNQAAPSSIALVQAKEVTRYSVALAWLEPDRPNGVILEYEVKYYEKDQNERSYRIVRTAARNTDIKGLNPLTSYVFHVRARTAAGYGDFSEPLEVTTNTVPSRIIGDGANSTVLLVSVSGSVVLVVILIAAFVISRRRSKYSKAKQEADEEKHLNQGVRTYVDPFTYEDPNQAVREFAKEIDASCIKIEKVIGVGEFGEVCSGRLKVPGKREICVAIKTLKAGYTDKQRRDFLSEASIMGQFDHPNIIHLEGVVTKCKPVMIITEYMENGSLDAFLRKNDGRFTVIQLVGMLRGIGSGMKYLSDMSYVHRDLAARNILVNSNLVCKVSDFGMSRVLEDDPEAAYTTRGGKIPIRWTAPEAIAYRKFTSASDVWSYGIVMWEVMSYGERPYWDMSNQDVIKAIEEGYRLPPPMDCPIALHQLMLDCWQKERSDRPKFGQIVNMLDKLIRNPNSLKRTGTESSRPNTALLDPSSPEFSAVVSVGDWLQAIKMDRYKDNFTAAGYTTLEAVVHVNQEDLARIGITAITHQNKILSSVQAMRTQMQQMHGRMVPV
Serine/threonine-protein kinase 17A (Homo sapiens), sequence (Q9UEE5 whole entry): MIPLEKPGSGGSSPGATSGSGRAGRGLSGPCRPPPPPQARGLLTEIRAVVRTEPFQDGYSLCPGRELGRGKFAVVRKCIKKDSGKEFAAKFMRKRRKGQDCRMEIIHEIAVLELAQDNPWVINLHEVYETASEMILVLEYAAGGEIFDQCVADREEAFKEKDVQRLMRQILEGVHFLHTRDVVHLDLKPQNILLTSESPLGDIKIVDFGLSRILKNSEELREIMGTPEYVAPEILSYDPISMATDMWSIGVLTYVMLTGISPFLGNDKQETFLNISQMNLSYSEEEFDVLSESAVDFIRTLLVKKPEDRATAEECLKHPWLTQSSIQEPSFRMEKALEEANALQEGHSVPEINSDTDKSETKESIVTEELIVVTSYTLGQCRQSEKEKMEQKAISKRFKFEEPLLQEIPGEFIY
G protein-coupled receptor kinase 4 (Homo sapiens), sequence (P32298 whole entry, looked up): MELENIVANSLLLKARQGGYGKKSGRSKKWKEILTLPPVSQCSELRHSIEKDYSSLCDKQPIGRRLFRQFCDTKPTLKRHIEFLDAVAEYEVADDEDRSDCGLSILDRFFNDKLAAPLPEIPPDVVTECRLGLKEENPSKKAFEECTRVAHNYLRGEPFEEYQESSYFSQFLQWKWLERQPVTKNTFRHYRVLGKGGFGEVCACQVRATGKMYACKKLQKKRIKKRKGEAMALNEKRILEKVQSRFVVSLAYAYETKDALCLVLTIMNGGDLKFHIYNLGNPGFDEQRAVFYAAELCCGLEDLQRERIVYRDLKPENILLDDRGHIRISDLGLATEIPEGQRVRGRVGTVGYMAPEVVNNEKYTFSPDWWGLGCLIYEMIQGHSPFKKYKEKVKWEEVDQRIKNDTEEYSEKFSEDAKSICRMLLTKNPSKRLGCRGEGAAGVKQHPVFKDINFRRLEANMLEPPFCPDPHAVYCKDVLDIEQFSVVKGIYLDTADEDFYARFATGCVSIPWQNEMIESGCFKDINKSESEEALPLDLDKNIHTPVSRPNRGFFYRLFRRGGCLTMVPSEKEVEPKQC

Cn1nc(C(=O)NCc2ccc(C(=O)O)cc2)cc1-c1ccc2[nH]ccc2c1 [BI 4395]
inactive: residual activity [1] 71% | residual activity [2] 77% | residual activity [3] 100% | residual activity [4] 69% | residual activity [5] 85% | residual activity [6] 83% | residual activity [7] 84% | residual activity [8] 88% | residual activity [9] 92% | residual activity [10] 100% | residual activity [11] 69% | residual activity [12] 95% | residual activity [13] 100% | residual activity [14] 84% | residual activity [16] 98% | residual activity [17] 96% | residual activity [18] 81% | residual activity [19] 97% | residual activity [20] 72% | residual activity [21] 97% | residual activity [22] 87% | residual activity [23] 83% | residual activity [24] 76% | residual activity [25] 62% | residual activity [26] 73% | residual activity [27] 91% | residual activity [28] 93% | residual activity [29] 100% | residual activity [30] 96% | residual activity [31] 100% | residual activity [32] 70% | residual activity [33] 87% | residual activity [34] 94% | residual activity [35] 97% | residual activity [36] 82% | residual activity [37] 100% | inhibition [38] 23.5% | inhibition [39] -4.31%
active: residual activity [15] 46%

CCOC(=O)c1cc2cc(-c3cc(C(=O)NCc4ccc(C(=O)O)cc4)nn3C)ccc2[nH]1 [BI 4394]
inactive: residual activity [1] 92% | residual activity [2] 81% | residual activity [3] 100% | residual activity [4] 71% | residual activity [5] 87% | residual activity [6] 100% | residual activity [7] 81% | residual activity [8] 86% | residual activity [9] 97% | residual activity [10] 92% | residual activity [11] 100% | residual activity [12] 100% | residual activity [13] 96% | residual activity [14] 86% | residual activity [15] 100% | residual activity [16] 90% | residual activity [17] 100% | residual activity [18] 100% | residual activity [19] 82% | residual activity [20] 95% | residual activity [21] 89% | residual activity [22] 88% | residual activity [23] 89% | residual activity [24] 100% | residual activity [25] 95% | residual activity [26] 100% | residual activity [27] 95% | residual activity [28] 100% | residual activity [29] 100% | residual activity [30] 69% | residual activity [31] 97% | residual activity [32] 80% | residual activity [33] 85% | residual activity [34] 94% | residual activity [35] 100% | residual activity [36] 83% | residual activity [37] 88% | inhibition [38] 34.8% | inhibition [39] 5.88%
